Biological target: T1, human A1 adenosine receptors (Homo sapiens, UniProt P30542)
T1 construct: expressed in transfected cells; host or cells: CHO cells (hCHO-A1 clone)
T1 sequence (P30542 1-326): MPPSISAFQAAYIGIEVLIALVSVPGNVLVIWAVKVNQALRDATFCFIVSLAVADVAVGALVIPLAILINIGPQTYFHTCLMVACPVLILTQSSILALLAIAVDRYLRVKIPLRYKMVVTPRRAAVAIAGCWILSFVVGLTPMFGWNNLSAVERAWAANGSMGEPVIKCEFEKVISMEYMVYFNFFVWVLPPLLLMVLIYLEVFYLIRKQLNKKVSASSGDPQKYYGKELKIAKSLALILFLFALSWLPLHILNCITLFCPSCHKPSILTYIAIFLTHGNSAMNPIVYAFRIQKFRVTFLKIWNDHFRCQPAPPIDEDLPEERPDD
Test: Saturation binding of [3H]CCPA to hCHO-A1
Experimental: The hCHO-A1, hCHO-A2A and hCHO-A3 cell clones are grown adherently and maintained in Dulbecco's modified Eagle's medium with nutrient mixture F12, containing 10% fetal calf serum, penicillin (100 U/mL), streptomycin (100 μg/mL), L-glutamine (2 mM), geneticine (G418, 0.2 mg/mL) at 37° C. in 5% CO2/95% air (Klotz et al. Naunyn-Schmied. Arch Pharm. 1998, 357, 1-9). Cells are split two or three times weekly at a ratio of between 1:5 and 1:10. For membrane preparation the culture medium is removed. The cells are washed with PBS and scraped off T75 flasks in ice-cold hypotonic buffer (5 mM Tris HCl, 2 mM EDTA, pH 7.4). The cell suspension is homogenized with Polytron and the homogenate is spun for 10 min at 1,000×g. […] The protein concentration is determined according to a Bio-Rad method (Bradford, 1976) with bovine albumin as a standard reference.
To determine the effect of the compounds of the present invention on the binding to A1, A2A and A3 receptors, membranes from hCHO-A1, hCHO-A2A, hCHO-A3 are incubated in a buffer solution in the absence and in the presence of the examined compounds. […] Bound and free radioactivity are separated by filtering the assay mixture through Whatman GF/B glass fibre filters using a Micro-mate 196 cell harvester (Packard Instrument Company). The filter bound radioactivity was counted on Top Count Microplate Scintillation Counter (efficacy […]) with Micro 20. […]

SMILES: Nc1scc(CN2CCC3(CC2)Oc2cccc(F)c2O3)c1C(=O)c1ccc(Cl)cc1 [Example 60, {2-Amino-4-(4-fluorospiro[benzo[d][1,3]-dioxole-2,4′-piperidine]-1′-ylmethyl)thiophen-3-yl}(4-chlorophenyl)methanone]
- increase in the BMAX value of the agonist [3H]CCPA: about 6 fold

Reference: patent publication US7897596B2, “Allosteric modulators of the A1 adenosine receptor” (King Pharmaceuticals Research & Development, Inc., priority 2006, dated 2011)
